Data from the NIST ThermoML archive (doi:10.1016/j.jct.2015.07.042).
Numbers after ± are expanded uncertainties.

Experiment: activity coefficient (dimensionless); of the first substance listed, at infinite dilution; xn = mol fraction of the nth substance listed
Conditions: 101 kPa, Liquid, Chromatography, x1 = 0

SMILES: C#CCCC [1-pentyne] + CCCCn1cc[n+](C)c1.[Cl-]
- activity coefficient (358.15 K): 4.89 ± 0.33
- activity coefficient (368.15 K): 5.25 ± 0.36
- activity coefficient (378.15 K): 5.51 ± 0.38
- activity coefficient (388.15 K): 5.78 ± 0.39

SMILES: C=CCCCCCC [oct-1-ene] + CCCCn1cc[n+](C)c1.[Cl-]
- activity coefficient (358.15 K): 142 ± 9.7
- activity coefficient (368.15 K): 134 ± 9.2
- activity coefficient (378.15 K): 126 ± 8.6
- activity coefficient (388.15 K): 122 ± 8.4

SMILES: CCCC(C)=O [pentan-2-one] + CCCCn1cc[n+](C)c1.[Cl-]
- activity coefficient (358.15 K): 7.59 ± 0.52
- activity coefficient (368.15 K): 7.71 ± 0.53
- activity coefficient (378.15 K): 7.78 ± 0.53
- activity coefficient (388.15 K): 8.01 ± 0.55

SMILES: c1ccsc1 [thiophene] + CCCCn1cc[n+](C)c1.[Cl-]
- activity coefficient (358.15 K): 2.04 ± 0.14
- activity coefficient (368.15 K): 2.16 ± 0.15
- activity coefficient (378.15 K): 2.27 ± 0.15
- activity coefficient (388.15 K): 2.41 ± 0.16

SMILES: Cc1ccc(C)cc1 [1,4-dimethylbenzene] + CCCCn1cc[n+](C)c1.CS(=O)(=O)[O-]
- activity coefficient (358.15 K): 9.03 ± 0.62
- activity coefficient (368.15 K): 9.2 ± 0.63
- activity coefficient (378.15 K): 9.37 ± 0.64
- activity coefficient (388.15 K): 9.71 ± 0.66

SMILES: CCCC=O [butanal] + CCCCn1cc[n+](C)c1.[Cl-]
- activity coefficient (358.15 K): 5.24 ± 0.36
- activity coefficient (368.15 K): 5.31 ± 0.36
- activity coefficient (378.15 K): 5.43 ± 0.37
- activity coefficient (388.15 K): 5.54 ± 0.38

SMILES: CC(C)CO [2-methyl-1-propanol] + CCCCn1cc[n+](C)c1.CS(=O)(=O)[O-]
- activity coefficient (398.15 K): 0.893 ± 0.057
- activity coefficient (408.15 K): 0.938 ± 0.059
- activity coefficient (418.15 K): 0.991 ± 0.062
- activity coefficient (428.15 K): 1.04 ± 0.066

SMILES: C=C(C)c1ccccc1 [(1-methylethenyl)benzene] + CCCCn1cc[n+](C)c1.CS(=O)(=O)[O-]
- activity coefficient (358.15 K): 6.43 ± 0.44
- activity coefficient (368.15 K): 6.71 ± 0.46
- activity coefficient (378.15 K): 6.96 ± 0.47
- activity coefficient (388.15 K): 7.41 ± 0.51

SMILES: C1COCCO1 [1,4-dioxane] + CCCCn1cc[n+](C)c1.CS(=O)(=O)[O-]
- activity coefficient (358.15 K): 2.33 ± 0.16
- activity coefficient (368.15 K): 2.41 ± 0.16
- activity coefficient (378.15 K): 2.49 ± 0.17
- activity coefficient (388.15 K): 2.62 ± 0.18

SMILES: CC(C)OC(C)C [diisopropyl ether] + CCCCn1cc[n+](C)c1.COP(=O)([O-])OC
- activity coefficient (358.15 K): 14.4 ± 0.98
- activity coefficient (368.15 K): 14.3 ± 0.97
- activity coefficient (378.15 K): 14.2 ± 0.97
- activity coefficient (388.15 K): 14.1 ± 0.96

SMILES: CCO [ethanol] + CCCCn1cc[n+](C)c1.CS(=O)(=O)[O-]
- activity coefficient (398.15 K): 0.533 ± 0.039
- activity coefficient (408.15 K): 0.553 ± 0.04
- activity coefficient (418.15 K): 0.576 ± 0.041
- activity coefficient (428.15 K): 0.599 ± 0.042

SMILES: C#CCCCCCC [1-octyne] + CCCCn1cc[n+](C)c1.CS(=O)(=O)[O-]
- activity coefficient (358.15 K): 17.8 ± 1.2
- activity coefficient (368.15 K): 18.6 ± 1.3
- activity coefficient (378.15 K): 19.5 ± 1.3
- activity coefficient (388.15 K): 20.4 ± 1.4

SMILES: Cc1ccccc1 [toluene] + CCCCn1cc[n+](C)c1.COP(=O)([O-])OC
- activity coefficient (358.15 K): 3.86 ± 0.26
- activity coefficient (368.15 K): 3.99 ± 0.27
- activity coefficient (378.15 K): 4.09 ± 0.28
- activity coefficient (388.15 K): 4.29 ± 0.29

SMILES: CC(C)(C)O [2-methylpropan-2-ol] + CCCCn1cc[n+](C)c1.[Cl-]
- activity coefficient (398.15 K): 0.987 ± 0.062
- activity coefficient (408.15 K): 1.07 ± 0.067
- activity coefficient (418.15 K): 1.16 ± 0.074
- activity coefficient (428.15 K): 1.27 ± 0.082

SMILES: C1CCCCC1 [cyclohexane] + CCCCn1cc[n+](C)c1.COP(=O)([O-])OC
- activity coefficient (358.15 K): 12.3 ± 0.84
- activity coefficient (368.15 K): 11.9 ± 0.81
- activity coefficient (378.15 K): 11.6 ± 0.79
- activity coefficient (388.15 K): 11.4 ± 0.78

SMILES: CCC[N+](=O)[O-] [1-nitropropane] + CCCCn1cc[n+](C)c1.CS(=O)(=O)[O-]
- activity coefficient (358.15 K): 1.89 ± 0.13
- activity coefficient (368.15 K): 1.96 ± 0.13
- activity coefficient (378.15 K): 2.02 ± 0.14
- activity coefficient (388.15 K): 2.13 ± 0.14

SMILES: CCC(=O)CC [pentan-3-one] + CCCCn1cc[n+](C)c1.COP(=O)([O-])OC
- activity coefficient (358.15 K): 3.73 ± 0.25
- activity coefficient (368.15 K): 3.81 ± 0.26
- activity coefficient (378.15 K): 3.89 ± 0.26
- activity coefficient (388.15 K): 4.04 ± 0.28

SMILES: C1CCOC1 [tetrahydrofuran] + CCCCn1cc[n+](C)c1.COP(=O)([O-])OC
- activity coefficient (358.15 K): 2.79 ± 0.19
- activity coefficient (368.15 K): 2.84 ± 0.19
- activity coefficient (378.15 K): 2.89 ± 0.2
- activity coefficient (388.15 K): 3.02 ± 0.21

SMILES: C=COC(C)=O [vinyl acetate] + CCCCn1cc[n+](C)c1.[Cl-]
- activity coefficient (358.15 K): 5.66 ± 0.39
- activity coefficient (368.15 K): 5.74 ± 0.39
- activity coefficient (378.15 K): 5.86 ± 0.4
- activity coefficient (388.15 K): 6.05 ± 0.41
